According to patent US20240131199A1, “PH RESPONSIVE CYANINE DYES AND CONJUGATES THEREOF” (BRACCO IMAGING S.P.A., priority 2020, published 2024):
Read-outs that look alike come from different tables or passages of the source. One block for each molecule: values may come before it.

Legend:
[1] = literature value; cited from earlier work
[2] = pKa of prior-art pH sensitive cyanine dyes (literature); format: physicochemical; conditions: worked out from literature pKa
[3] = Optical characterization (absorbance, excitation and emission spectra, microplate reader); format: physicochemical; conditions: phosphate buffer; for Abs. Max. / Em. Max.: maximum of the active form
Experimental: All commercially available reagents used in the synthesis were obtained from Sigma Aldrich and TCI and they were used without further purification. c(RGDfK) was purchased from Apex Bio or Bachem. All the reactions were followed by HPLC (Agilent mod. 1100/1200) and HPLC-MS (Agilent mod. 1260, Quadrupole LC/MSD Mod. 6120) equipped with an absorption detector set at different wavelengths (Column: YMC-Triart Phenyl, 250×4.6 mm/S-5 μm/12 nm). Purifications were performed by flash chromatography on an automated purification system (CombiFlash® Rf+), using pre-packed silica C18 cartridges (Biotage® or Phenomenex) or by preparative HPLC on preparative YMC-Triart Phenyl column. Absorbance, excitation and emission values were assessed in a well plate reader to speed-up the measurements (SPARK).
Optical characterization was performed for each compound with Spark® multimode microplate reader, registering with specific 96-wells plate the absorbance, excitation and emission spectra of the fluorophore buffered in phosphate buffer at several pH, ranging from 3 to 8.
In particular, the absorbance, excitation and emission maxima of representative compounds of formula (I) and conjugates of formula (II) are shown in Table III.

[4] = Residual fluorescence at different pH relative to pH 3; format: physicochemical; conditions: unit assumed; for Em. at pH 5/Em at pH 3: fluorescence at pH 5 relative to maximum at pH 3; for Em. at pH 6/Em at pH 3: fluorescence at pH 6 relative to maximum at pH 3; for Em. at pH 7.5/Em at pH 3: fluorescence at pH 7.5 relative to maximum at pH 3
Experimental: The ratio of the fluorescence at different pH (5, 6 and 7.5) with respect to the maximum fluorescence collected at pH 3 (highly acidic) was calculated for several representative compounds of the invention and the results are reported in the following Table V. The results were also compared to the values calculated for the non-alkylated Reference Compound A.

[5] = pK assessment from absorbance/emission versus pH in phosphate buffers; format: physicochemical; conditions: for pKa: phosphate buffers at different pH, inflection point of absorbance vs pH, phosphate buffers, read-out: pKa (by abs)
Experimental: From the analysis of the variation of the absorbance and emission with respect to the variation of pH, it was possible to calculate the pKa of the dyes of the invention as the inflection point of the interpolated curve.
All the pH buffers used for the experiment were phosphate based buffers and each pH point has been accurately checked with pH-meter. First the cyanine powder was dissolved in water at ca. 1 mg/mL concentration and then 10 μL of this mother solution were added to 1 ml of phosphate buffers at different pH, previously prepared mixing ortophosphoric acid and sodium hydroxide in the right amount to reach the desired pH. The diluted cyanine buffered solutions were then sampled and transferred into a 96 wells plate (clear for the absorbance measurements and dark for the emission measurements) for the analyses. By plotting for each solution the value of the absorbance at the maximum of the active form, for instance 780 nm for Compound 5, vs. the pH of the solution, a polynomial cubic curve was obtained, whose flex corresponds to the pKa value of the cyanine.

- pH at which 95% protonation is achieved [2]: 4.2
SMILES: CC1(C)C(/C=C/C2=C(c3ccc(C(=O)O)cc3)C(=C/C=C3/Nc4ccc(S(=O)(=O)O)cc4C3(C)C)/CCC2)=Nc2ccc(S(=O)(=O)O)cc21 [B]
- pKa [1]: 5.2

- Exc. Max. [3]: 783 nm
- Abs. Max. [3]: 784 nm
- Em. Max. [3]: 804 nm
- Em. at pH 5/Em at pH 3 [4]: 104%
- Em. at pH 6/Em at pH 3 [4]: 55%
- Em. at pH 7.5/Em at pH 3 [4]: 9%
- pKa [5]: 6
SMILES: CC(CC[N+]1=C(/C=C/C2=C(Cl)C(=C/C=C3/Nc4ccc(S(=O)(=O)O)cc4C3(C)C)/CCC2)C(C)(C)c2cc(C(=O)O)ccc21)S(=O)(=O)[O-] (centres unmarked) [Compound 1]

- Exc. Max. [3]: 780 nm
- Abs. Max. [3]: 782 nm
- Em. Max. [3]: 807 nm
SMILES: CC(CC[N+]1=C(/C=C/C2=C(Cl)C(=C/C=C3/Nc4ccc(S(=O)(=O)O)cc4C3(C)C)/CCC2)C(C)(C)c2cc(C(=O)NCC(O)C(O)C(O)C(O)CO)ccc21)S(=O)(=O)[O-] (centres unmarked) [Compound 3]

- pKa [5]: 6.4
SMILES: CC1(C)C(/C=C/C2=C(c3ccc(C(=O)NCCS(=O)(=O)O)cc3)C(=C/C=C3/Nc4ccc(S(=O)(=O)O)cc4C3(C)C)/CCC2)=[N+](CCCCCC(=O)O)c2ccc(S(=O)(=O)[O-])cc21 [Compound 4]

- pKa (from emission vs pH) ([5]; emission at 804 nm vs pH, second source of data): same value of pKa
- pKa [5]: 5.9
SMILES: CC1(C)C(/C=C/C2=C(Cl)C(=C/C=C3/Nc4ccc(S(=O)(=O)O)cc4C3(C)C)/CCC2)=[N+](CCCCCC(=O)O)c2ccc(S(=O)(=O)[O-])cc21 [Compound 5]

- pKa [5]: 6
SMILES: CC1(C)C(/C=C/C2=C(Cl)C(=C/C=C3/Nc4ccc(S(=O)(=O)[O-])cc4C3(C)C)/CCC2)=[N+](CCCCCC(=O)O)c2ccc(C(=O)NCC(O)C(O)C(O)C(O)CO)cc21 (centres unmarked) [Compound 6]

- pKa [5]: 6.1
SMILES: CC1(C)C(/C=C/C2=C(Cl)C(=C/C=C3/N(CCCCCC(=O)O)c4ccc(C(=O)NCC(O)C(O)C(O)C(O)CO)cc4C3(C)C)/CCC2)=Nc2ccc(C(=O)NCC(O)C(O)C(O)C(O)CO)cc21 (centres unmarked) [Compound 7]

- Exc. Max. [3]: 740 nm
- Abs. Max. [3]: 742 nm
- Em. Max. [3]: 777 nm
- Em. at pH 5/Em at pH 3 [4]: 96%
- Em. at pH 6/Em at pH 3 [4]: 66%
- Em. at pH 7.5/Em at pH 3 [4]: 10%
- pKa [5]: 6
SMILES: CC1(C)C(/C=C/C=C/C=C/C=C2/Nc3ccc(S(=O)(=O)O)cc3C2(C)C)=[N+](CCCCCC(=O)O)c2ccc(S(=O)(=O)O)cc21 [Compound 8]

- pKa [5]: 6.7
SMILES: CC1(C)C(/C=C/C(Cl)=C/C=C2/N(CCCCCC(=O)O)c3ccc4c(S(=O)(=O)O)cc(S(=O)(=O)O)cc4c3C2(C)C)=Nc2ccc3c(S(=O)(=O)O)cc(S(=O)(=O)O)cc3c21 [Compound 9]

SMILES: CC1(C)C(/C=C/C2=C(Cl)C(=C/C=C3/Nc4ccc(S(=O)(=O)O)cc4C3(C)C)/CCC2)=[N+](CCCCCC(=O)NCCCCC2NC(=O)[C@@H](Cc3ccccc3)NC(=O)[C@H](CC(=O)O)NC(=O)CNC(=O)[C@H](CCCNC(=N)N)NC2=O)c2ccc(S(=O)(=O)[O-])cc21 (some centres unmarked) [Compound 10]
- pKa [5]: 5.8

SMILES: CC1(C)C(/C=C/C2=C(Cl)C(=C/C=C3/Nc4ccc(S(=O)(=O)O)cc4C3(C)C)/CCC2)=[N+](CCCCCC(=O)NCCCCC2NC(=O)[C@@H](Cc3ccccc3)NC(=O)[C@H](CC(=O)O)NC(=O)CNC(=O)[C@H](CCCNC(=N)N)NC2=O)c2ccc(C(=O)NCC(O)C(O)C(O)C(O)CO)cc21 (some centres unmarked) [Compound 11]
- pKa [5]: 6.3

SMILES: CC1(C)C(/C=C/C2=C(Cl)C(=C/C=C3/Nc4ccc(C(=O)NCC(O)C(O)C(O)C(O)CO)cc4C3(C)C)/CCC2)=[N+](CCCCCC(=O)NCCCCC2NC(=O)[C@@H](Cc3ccccc3)NC(=O)[C@H](CC(=O)O)NC(=O)CNC(=O)[C@H](CCCNC(=N)N)NC2=O)c2ccc(C(=O)NCC(O)C(O)C(O)C(O)CO)cc21 (some centres unmarked) [Compound 12]
- Exc. Max. [3]: 790 nm
- Abs. Max. [3]: 793 nm
- Em. Max. [3]: 814 nm

SMILES: CC1(C)C(/C=C/C=C/C=C2/Nc3ccc(S(=O)(=O)O)cc3C2(C)CCCCCC(=O)O)=[N+](CCCCS(=O)(=O)O)c2ccc(S(=O)(=O)O)cc21 (centres unmarked) [CypHer5E]
- pKa [1]: ~7.3

- Em. at pH 5/Em at pH 3 [4]: 40%
- Em. at pH 6/Em at pH 3 [4]: 10%
- Em. at pH 7.5/Em at pH 3 [4]: 1%
- pKa [5]: 4.6
- pH at which 95% protonation is achieved [2]: 3.7
SMILES: CC1(C)C(/C=C/C2=C(Cl)C(=C/C=C3/Nc4ccc(S(=O)(=O)O)cc4C3(C)C)/CCC2)=Nc2ccc(S(=O)(=O)O)cc21 [Reference Compound A, reference compound]
- pKa [1]: 4.7

SMILES: CC[N+]1=C(/C=C/C=C/C=C2/Nc3ccc(CC(=O)O)cc3C2(C)C)C(C)(C)c2cc(S(=O)(=O)[O-])ccc21 [pentamethine cyanine dye]
- pKa [1]: 7.5
